Assay results published in PMC7278020, “Triterpenic Acids as Non-Competitive α-Glucosidase Inhibitors from Boswellia elongata with Structure-Activity Relationship: In Vitro and In Silico Studies” (Biomolecules, 2020).
Where two headings read alike, the source gives them in different places.

Tests used:
[1] = molecular target: T1, α-Glucosidase enzyme (E.C. 3.2.1.20) (Saccharomyces cerevisiae, UniProt P53341); assay: biochemical
T1 construct: purchased Sigma-Aldrich G0660-750UN
Description: (§1) α-Glucosidase enzyme (E.C. 3.2.1.20) from Saccharomyces cerevisiae were purchased from Sigma-Aldrich (Darmstadt, Hesse, Germany) with product number of G0660-750UN and their inhibition assay was carried out by using 0.1 M phosphate buffer (pH 6.8) solution at 37 °C. […] For the kinetics studies, different concentrations (0.1, 0.2, 0.4 and 0.8 mM) of p-nitrophenyl-α-D-glucopyranoside (substrate) were used. In control the tested compounds were replaced with DMSO-d6 (7.5% final). […] Three time the experiment was repeated having triplicate of each samples. The % inhibition was calculated by using the following formula:% Inhibition = 100 − (OD test well/OD control) ×100 (OD = Optical density)

[2] = molecular target: T2, α-glucosidase enzyme (Saccharomyces cerevisiae, UniProt P53341); assay: Kinetics studies on α-glucosidase (Lineweaver–Burk, secondary replot, Dixon plot); format: biochemical; settings: for Type of Inhibition: Lineweaver–Burk plots
T2 construct: purchased Sigma-Aldrich G0660-750UN
T2 sequence (P53341 whole entry): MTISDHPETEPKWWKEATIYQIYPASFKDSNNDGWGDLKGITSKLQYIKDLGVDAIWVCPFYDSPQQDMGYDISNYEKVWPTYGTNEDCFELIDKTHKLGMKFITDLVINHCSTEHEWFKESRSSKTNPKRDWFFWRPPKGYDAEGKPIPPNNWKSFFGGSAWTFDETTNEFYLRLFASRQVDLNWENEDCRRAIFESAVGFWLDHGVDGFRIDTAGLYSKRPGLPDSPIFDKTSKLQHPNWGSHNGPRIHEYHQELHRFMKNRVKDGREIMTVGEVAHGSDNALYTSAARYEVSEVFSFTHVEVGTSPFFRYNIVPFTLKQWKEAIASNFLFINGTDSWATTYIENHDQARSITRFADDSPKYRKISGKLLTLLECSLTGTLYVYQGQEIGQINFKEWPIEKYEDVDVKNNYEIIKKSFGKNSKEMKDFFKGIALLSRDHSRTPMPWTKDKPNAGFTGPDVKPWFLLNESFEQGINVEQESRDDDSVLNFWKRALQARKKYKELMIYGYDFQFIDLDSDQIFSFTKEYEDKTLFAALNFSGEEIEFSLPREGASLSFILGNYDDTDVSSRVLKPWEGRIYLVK
Description: as §1
The type of inhibition was determined by Lineweaver–Burk plots, the reciprocal of the rate of the reaction was plotted against the reciprocal of substrate concentrations to monitor the effect of inhibitor on both Km and Vmax. […] In non-competitive inhibition, the Vmax of enzyme decreased, while Km are not affected. […] The secondary replots of Lineweaver–Burk plots were used to determine the Ki values.

[3] = molecular target: T1, α-Glucosidase enzyme (E.C. 3.2.1.20); settings: the previous investigation; acetyl group at C-3 position; cited from earlier work
[4] = molecular target: T2, α-glucosidase enzyme; parameters: method as in PMID 29030193; settings: cited from earlier work
[5] = substrate 0.1, 0.2, 0.4 and 0.8 mM, read-out: Ki = µM ± SEM
[6] = pH 6.8, 37 °C, substrate p-nitrophenyl-α-D-glucopyranoside 0.7 mM, NA = Not active, read-out: IC50 = µM ± SEM

T1 sequence (P53341 whole entry): as above

With `CC(=O)OC1CCC2(C)C3=C(CCC2C1(C)C)C1(C)CCC(C(C)CCC=C(C)C)C1(C)CC3` (stereo not drawn) [Compound 1, 5α-tirucalla-8,24-dien-3α-acetate] the inhibition at 1000 µM [1] was under 50% and the “IC50 = µM ± SEM” value ([1]; pH 6.8, 37 °C, substrate p-nitrophenyl-α-D-glucopyranoside 0.7 mM, NA = Not active) was “inactive”.

With `CC(C)=CCC[C@H](C)C1CC[C@]2(C)C3=C(CC[C@@]12C)[C@@]1(C)CC[C@@H](O)C(C)(C)C1CC3` (stereo partly drawn) [Compound 2, 5α-Tirucalla-8,24-dien-3α-ol] the inhibition at 1000 µM [1] was under 50%.

With `CC(=O)O[C@@H]1CC[C@]2(C)C3=C(CCC2C1(C)C)[C@@]1(C)CCC([C@H](CCC=C(C)C)C(=O)O)[C@]1(C)CC3` (stereo partly drawn) [Compound 3, 3α-Acetoxytirucall-8,24-dien-21-oic acid] the “Type of Inhibition” value [2] was “Non-competitive”, the Ki [2, 5] was 51.1 ± 0.63 µM and the IC50 [1, 6] was 56.8 ± 1.3 µM.

With `CC(=O)O[C@@H]1CC[C@]2(C)C3=CC=C4C5[C@@H](C)[C@H](C)CC[C@]5(C)CC[C@@]4(C)[C@]3(C)CCC2[C@@]1(C)C(=O)O` (stereo partly drawn) [Compound 4, 3-O-Acetyl-9,11-dehydro-β-boswellic acid] the Ki [2] was 7.05 ± 0.75 µM, the “Type of Inhibition” value [2] was “Non-competitive” and the IC50 [1] was 9.9 ± 0.48 µM. For the same molecule, the “times more active than the standard inhibitor acarbose” value ([1]; from IC50 values) was 94 times.

In the case of `C[C@@H]1CC[C@]2(C)CC[C@]3(C)C(=CC=C4[C@@]5(C)CC[C@@H](O)[C@](C)(C(=O)O)C5CC[C@]43C)C2[C@H]1C` (stereo partly drawn) [Compound 5, 9,11-Dehydro-β-boswellic acid], the “Type of Inhibition” value [2] is reported as “Non-competitive”, the Ki [2, 5] is reported as 15.3 ± 0.54 µM and the IC50 [1, 6] is reported as 20.9 ± 0.05 µM.

For `CC(=O)O[C@@H]1CC[C@@]2(C)[C@@H](CC[C@]3(C)[C@@H]2CC=C2[C@@H]4[C@@H](C)[C@H](C)CC[C@]4(C)CC[C@]23C)[C@@]1(C)C(=O)O` [Compound 6, 3-Acetyl-β-boswellic acid], the “glucosidase inhibition (in words)” value [3] is given as “most promising glucosidase inhibitors”.

In the case of `CC(=O)O[C@@H]1CC[C@@]2(C)[C@@H](CC[C@]3(C)[C@@H]2C(=O)C=C2[C@@H]4[C@@H](C)[C@H](C)CC[C@]4(C)CC[C@]23C)[C@@]1(C)C(=O)O` [Compound 7, 3-Acetyl 11-keto-β-boswellic acid], the “glucosidase inhibition (in words)” value [3] is given as “most promising glucosidase inhibitors”.

For `CO[C@@H]1C=C2C3[C@@H](C)[C@H](C)CC[C@]3(C)CC[C@@]2(C)[C@]2(C)CCC3[C@](C)(CC[C@@H](O)[C@]3(C)C(=O)O)C12` (stereo partly drawn) [Compound 11, 11α-methoxy-β-boswellic acid], the Ki [2] was 8.05 ± 0.38 µM, the “Type of Inhibition” value [2] was “Non-competitive” and the IC50 [1] was 14.9 ± 1.31 µM.

In the case of `CC(=O)O[C@@H]1CC[C@@]2(C)[C@@H](CC[C@]3(C)[C@@H]2CC=C2[C@@H]4CC(C)(C)CC[C@]4(C)CC[C@]23C)[C@@]1(C)C(=O)O` [Compound 12, 3-Acetyl-α-boswellic acid], the “glucosidase inhibition (in words)” value [3] is listed as “most promising glucosidase inhibitors”.

`C[C@@H]1CC[C@H]2[C@@H]1C1C(CC[C@]2(C)O)C1(C)C` (some centres unmarked) [Compound 19, Viridiflorol] gave an inhibition at 1000 µM [1] of under 50%.

In the case of `C/C1=C\CC/C(C)=C/C[C@H](C(C)(C)O)CC/C(C)=C/CC1` [Compound 20, Iso-serratol], the inhibition at 1000 µM [1] is reported as under 50%.

For `CC1(C)CC[C@]2(C(=O)O)CC[C@]3(C)C(=CC[C@@H]4[C@@]5(C)CC[C@H](O)C(C)(C)[C@@H]5CC[C@]43C)[C@@H]2C1` [oleanolic acid], the “Type of inhibition of α-glucosidase (literature)” value [4] is given as “non-competitive inhibitors”.

In the case of `C[C@H]1[C@H](C)CC[C@]2(C(=O)O)CC[C@]3(C)C(=CC[C@@H]4[C@@]5(C)CC[C@H](O)C(C)(C)[C@@H]5CC[C@]43C)[C@H]12` [ursolic acid], the “Type of inhibition of α-glucosidase (literature)” value [4] is listed as “non-competitive inhibitors”.
